Columns and labels:
[1] = Lipid maldigestion or malabsorption rat model (XENICAL-induced): EPA level in red blood cells and tissue after feeding EPA glycerides or fish oil; type: in vivo; conditions: for level of EPA incorporated in red blood cells: rats given XENICAL, day 7 data (FIG. 3)
Method: The concept was tested in a lipid maldigestion or malabsorption rat model. The maldigestion or malabsorption condition was obtained using XENICAL® (ORLISTAT, tetrahydrolipstatin), a pancreatic and gastric lipases inhibitor. Rats were fed during 21 days with long-chain polyunsaturated fatty acid (LC-PUFA) supplements containing mainly eicosapentaenoic (EPA) acid. Fish oil was used as a source of triacylglycerols, and different EPA glycerides were evaluated: Vanillin acetal of 2-EPA (from Stepan Lipid Nutrition); 1,3 Diacetyl-2 EPA (from Stepan Lipid Nutrition) and Sn-1(3)-MAG-EPA (purchased from Cognis GmbH, Germany). XENICAL® (ORLISTAT) was given at a level sufficient to decrease lipid absorption by 40%. A group receiving fish oil without XENICAL® (ORLISTAT) was used as a positive control. At different time intervals (D3, D7, […]), the fatty acid profiles of red blood cells and plasma lipids were determined. At the end of the experiment, the fatty acid profiles of different tissues were determined. The main objective was to follow the level of EPA in red blood cells and plasma lipids. The main comparison evaluated was the difference in EPA level between the group receiving EPA glycerides such as EPA-containing sn-1(3) MAG, in combination with XENICAL® (ORLISTAT) and the positive control group […].

[2] = Clinical study comparing sn-1(3) MAG and fish oil (TAG) in delivering EPA under lipid maldigestion induced by XENICAL; type: in vivo, humans; conditions: for chronic effect: accretion of EPA in erythrocytes as percentage of total fatty acids: compared with fish oil + XENICAL, p=0.0001 (FIG. 6)
Method: This clinical study compared the efficacy of sn-1(3) MAG and fish oil (TAG) in delivering EPA in humans under lipid maldigestion conditions induced by XENICAL® (ORLISTAT). The comparison was tested in volunteers treated with XENICAL® to induce lipid maldigestion or not treated with XENICAL® (ORLISTAT). The primary objective was to assess accretion of EPA in erythrocytes over 21 days when consumed as fish oil (TAG) or sn-1(3) MAG. The secondary objectives were to assess accretion of EPA in plasma over 21 days and also to assess the pharmacokinetics of EPA after an acute dose either in the form of sn-1(3) MAG or TAG (AUC in chylomicrons over 10 hours postprandial). See FIG. 4 that describes the clinical study timeline.

Row | Compound | effect of XENICAL on EPA incorporation in red blood cells ([1]; fish oil + XENICAL compared with fish oil without XENICAL, day 7) | incorporation of LC-PUFAs in tissue ([1]; conditions of lipid maldigestion or malabsorption (XENICAL), comparison of groups A, B and C) | level of EPA incorporated in red blood cells ([1]; compared with fish oil group without XENICAL) | level of EPA incorporated in red blood cells ([1]; fed 21 days, compared with fish oil + XENICAL, all P values lower than 0.05, listed as sn-1(3) MAG that contained EPA) | level of EPA incorporated in red blood cells ([1]; fed 21 days, compared with fish oil + XENICAL, all P values lower than 0.05, listed as sn-1(3)MAGs) | chronic effect: accretion of EPA in erythrocytes as percentage of total fatty acids ([2]; after 21 days, with XENICAL) | chronic effect: accretion of EPA in erythrocytes as percentage of total fatty acids ([2]; after 21 days, with XENICAL, listed as sn-1(3)MAGs) | chronic effect: accretion of EPA in plasma as percentage of total fatty acids ([2]; after 21 days, with XENICAL, relative to fish oil + XENICAL, p=0.0003 (FIG. 7)) | carrier for EPA (overall conclusion of the clinical trial) ([2]; human subjects treated with XENICAL, compared with fish oil (TAG))
1 | CCCCCCCCCCC[C@@H](C[C@@H]1OC(=O)[C@H]1CCCCCC)OC(=O)[C@H](CC(C)C)NC=O [XENICAL, tetrahydrolipstatin, reference compound] | decreases EPA incorporation in red blood cells | – | – | – | – | – | – | – | –
2 | CC/C=C\C/C=C\C/C=C\C/C=C\C/C=C\CCCC(=O)OCC(O)CO (stereo not drawn) [sn-1(3) MAG, sn-1(3)-monoeicosapentaenoylglycerol] | – | improved | even higher than the fish oil group | statistically higher | significantly higher | statistically significant | significantly higher | statistically significant | better carrier for EPA than fish oil (TAG)
